According to US8658639B2, “N-substituted-cyclic amino derivative” (Dainippon Sumitomo Pharma Co., Ltd, priority 2009, dated 2014):

Legend:
Recombinant human renin = molecular target: T1, Recombinant human renin (Homo sapiens, UniProt P00797); assay: In vitro renin inhibitory activity assay; type: biochemical; conditions: recombinant human renin 4.2 ng/mL, substrate 4 μM, 37° C., one hour, pH 7.4
T1 sequence (P00797 67-406): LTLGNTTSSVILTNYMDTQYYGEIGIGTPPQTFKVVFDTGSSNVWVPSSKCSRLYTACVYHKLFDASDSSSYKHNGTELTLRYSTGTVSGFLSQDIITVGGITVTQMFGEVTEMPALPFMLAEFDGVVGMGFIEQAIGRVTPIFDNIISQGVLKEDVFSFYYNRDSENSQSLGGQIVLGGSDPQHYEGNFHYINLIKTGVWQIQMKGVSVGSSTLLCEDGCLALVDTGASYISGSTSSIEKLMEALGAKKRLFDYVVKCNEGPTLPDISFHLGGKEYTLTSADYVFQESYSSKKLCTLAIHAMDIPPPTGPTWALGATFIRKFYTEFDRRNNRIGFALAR
Procedure: Experiment 1: In Vitro Renin Inhibitory Activity Assay
Recombinant human renin (4.2 ng/mL) was reacted in 0.1M HEPES buffer (pH 7.4) containing 0.1M NaCl, 1 mM EDTA and 0.1 mg/mL BSA together with a substrate and a test compound at 37° C. for one hour. As the substrate, Arg-Glu(EDANS)-Ile-His-Pro-Phe-His-Leu-Val-Ile-His-Thr-Lys(DABCYL)-Arg (SEQ ID NO: 1) or DABCYL-γ-Abu-Ile-His-Pro-Phe-His-Leu-Val-Ile-His-Thr-EDANS (SEQ ID NO: 2) was added in such an amount so that the final concentration thereof became 4 μM. The elevated fluorescence intensity at the exciting wavelength 340 nm and the fluorescence wavelength 500 nm was measured by a fluorescence plate reader. The concentration of a test compound to be needed to inhibit an enzyme activity in the presence of a test compound in several concentrations by 50% was calculated as an IC50 value. The test compounds were diluted in DMSO and used in this Experiment.

[1] = tested on: abdominal skin of CD male rats; assay: Testing for irritation by single subcutaneous administration to rats; type: in vivo; parameters: key: — No inflammation; Amount of Inflammation: * < ** < *** < ****; Amount of Inflammation: * < ** < *** < ****; Amount of Inflammation: * < ** < *** < ****; Amount of Inflammation: * < ** < *** < ****; conditions: single subcutaneous administration 0.1 ml, 2% in DMSO and saline
Procedure: Experiment 2: Testing for Irritation by Single Subcutaneous Administration to Rats
A test compound was measured and dissolved in DMSO and a saline solution in a concentration of 2%.

IC50 (Recombinant human renin) | Structure (SMILES) | Observation at Administration Site, One day after administration [1] | Observation at Administration Site, Three days after administration [1]
530 nM | CCC(=O)NCCN1C(=O)C2(CCC2)Oc2cc(C)c(C(=O)N(C(C)C)[C@@H]3CCCN(C(=O)O[C@H](C)OC(=O)C(C)C)C3)cc21 [Example 82] | ** | —
250 nM | CCC(=O)NCCN1C(=O)C(C)(C)Oc2cc(C)c(C(=O)N(C(C)C)[C@@H]3CCCN(C(=O)O[C@H](C)OC(=O)C(C)C)C3)cc21 [Example 67] | ** | —
1900 nM | CCC(=O)NCCN1C(=O)[C@](C)(COC)Oc2cc(C)c(C(=O)N(C(C)C)[C@@H]3CCCN(C(=O)O[C@H](C)OC(=O)C(C)C)C3)cc21 [Example 93] | — | —
1.7 nM | CCC(=O)NCCN1C(=O)C2(CCC2)Oc2cc(C)c(C(=O)N(C(C)C)[C@@H]3CCCN(C(=O)OCc4oc(=O)oc4C)C3)cc21 [Example 81] | ** | —
